Results taken from ChEMBL document CHEMBL5360639, “Cannabidiol Analogue CIAC001 for the Treatment of Morphine-Induced Addiction by Targeting PKM2” (J Med Chem, 2023).
Active and inactive are the calls of the source.

Columns and labels:
BV-2 [1] = assay: Anti-neuroinflammatory activity in mouse BV-2 cells assessed as inhibition of LPS-induced NO production incubated for 24 hrs by microplate reader analysis; type: functional, cell-based; conditions: BV-2, 24 h
[2] = Cytotoxicity against mouse BV-2 cells assessed as reduction in cell viability by crystal violet staining based assay; type: toxicity
[3] = Therapeutic index, ratio of IC50 for cytotoxicty against mouse BV-2 cells assessed as reduction in cell viability by crystal violet staining based assay to IC50 for nti-neuroinflammatory activity in mouse BV-2 cells assessed as inhibition of LPS-induced NO production; type: toxicity; conditions: read-out: Ratio IC50
BV-2 [4] = assay: Anti-neuroinflammatory activity in LPS-induced mouse BV-2 cells assessed as reduction in […] mRNA expression by qRT-PCR analysis; type: functional, cell-based; conditions: dose 1-10 µM
BV-2 [5] = assay: Anti-neuroinflammatory activity in LPS-induced mouse BV-2 cells assessed as reduction in TNF-alpha mRNA expression by qRT-PCR analysis; type: functional, cell-based; conditions: dose 1-10 µM
BV-2 [6] = assay: Anti-neuroinflammatory activity in LPS-induced mouse BV-2 cells assessed as reduction in IL-6 mRNA expression by qRT-PCR analysis; type: functional, cell-based; conditions: dose 1-10 µM
BV-2 [7] = assay: Anti-neuroinflammatory activity in LPS-induced mouse BV-2 cells assessed as formation of amoeboid-shaped cells at 10 uM incubated for 24 hrs by inverted microscopic analysis; type: functional, cell-based
BV-2 [8] = assay: Anti-neuroinflammatory activity in LPS-induced mouse BV-2 cells assessed as reduction in iNOS mRNA expression at 10 uM incubated for 24 hrs by qRT-PCR analysis; type: functional, cell-based
BV-2 [9] = assay: Anti-neuroinflammatory activity in LPS-induced mouse BV-2 cells assessed as reduction in IL-1beta mRNA expression at 10 uM incubated for 24 hrs by qRT-PCR analysis; type: functional, cell-based
BV-2 [10] = assay: Anti-neuroinflammatory activity in LPS-induced mouse BV-2 cells assessed as reduction in […] mRNA expression at 10 uM incubated for 24 hrs by qRT-PCR analysis; type: functional, cell-based
Mus musculus [11] = assay: Anti-neuroinflammatory activity in naloxone precipitated morphine-induced ip dosed BALB/c mouse assessed as reduction in naloxone precipitated withdrawal jumps administered with morphine 3 times daily for 3 days and on day 4 for 3 hrs prior to compound addition for 30 mins before naloxone addition and measured after 15 mins; type: functional, organism-based; conditions: dose 0.2-20 µg/kg, time 45.0 min
Mus musculus [12] = assay: Anti-neuroinflammatory activity in morphine-induced BALB/c mouse assessed as inhibition of behavioral sensitization at 0.2 mg/kg, ip administered once daily for 7 days; type: functional, organism-based; conditions: time 7.0 day
Mus musculus [13] = assay: Anti-neuroinflammatory activity in morphine-induced BALB/c mouse assessed as […] in locomotor activity 0.2 mg/kg, ip administered once daily for 7 days and measured after 60 mins; type: functional, organism-based; conditions: time 169.0 hrs
Mus musculus [14] = assay: Anti-neuroinflammatory activity in morphine-induced BALB/c mouse assessed as decrease in conditioned place preference behavior 0.2 mg/kg, ip pretreated for 6 days followed by morphine induction and measured on days 5 to 9 days; type: functional, organism-based; conditions: time 11-15 day
Mus musculus [15] = assay: Anti-neuroinflammatory activity in morphine-induced BALB/c mouse assessed as inhibition of IL-1beta expression in mPFC region 0.2 mg/kg, ip; type: functional, organism-based
Mus musculus [16] = assay: Anti-neuroinflammatory activity in morphine-induced BALB/c mouse assessed as inhibition of IL-1beta expression in NAc region 0.2 mg/kg, ip; type: functional, organism-based
Mus musculus [17] = assay: Anti-neuroinflammatory activity in morphine-induced BALB/c mouse assessed as inhibition of IL-1beta expression in VTA region 0.2 mg/kg, ip; type: functional, organism-based
Mus musculus [18] = assay: Anti-neuroinflammatory activity in morphine-induced BALB/c mouse assessed as inhibition of Iba1 expression in mPFC region 0.2 mg/kg, ip; type: functional, organism-based
[19] = Tmax in BALB/c mouse plasma at 10 mg/kg, po measured upto 4 hrs by mS-HPLC analysis; type: ADME, organism-based
[20] = Tmax in BALB/c mouse brain at 10 mg/kg, po measured upto 4 hrs by mS-HPLC analysis; type: ADME, organism-based
[21] = Cmax in BALB/c mouse at 10 mg/kg, po measured upto 4 hrs by mS-HPLC analysis; type: ADME, organism-based; parameters: time < 4 hrs, dose 10 mg/kg, route po; conditions: in vivo
[22] = Half life in BALB/c mouse at 10 mg/kg, po measured upto 4 hrs by mS-HPLC analysis; type: ADME, organism-based; conditions: in vivo
[23] = MRT in BALB/c mouse at 10 mg/kg, po measured upto 4 hrs by mS-HPLC analysis; type: ADME, organism-based; conditions: in vivo
[24] = Ratio of drug concentration in blood to plasma in BALB/c mouse at 10 mg/kg, po measured at 3 hrs; type: ADME, organism-based; conditions: in vivo
[25] = AUC (0 to t) in BALB/c mouse at 10 mg/kg, po measured upto 4 hrs by mS-HPLC analysis; type: ADME, organism-based; conditions: in vivo
[26] = Toxicity in BALB/c mouse assessed as effect on respiratory rate at 20 mg/kg, ip measured on day 2 and 5; type: organism-based; conditions: in vivo, 120 h, time 5 day
[27] = Toxicity in BALB/c mouse assessed as cognitive impairment by measuring time spent on new arm at 20 mg/kg, ip administered once daily for 3 days and measured after 45 mins by Y maze test; type: organism-based; conditions: in vivo, 72.75 h, time 4365 min
[28] = Toxicity in BALB/c mouse assessed as rewarding effect at 20 mg/kg, ip measured after 6 days by CPP analysis; type: organism-based; conditions: in vivo, 144 h, time 6 day
[29] = Toxicity in BALB/c mouse assessed as effect on locomotor activity at 20 mg/kg, ip measured administered once daily for 7 days and measured after 24 hrs by open field test; type: organism-based; conditions: in vivo, 192 h
[30] = Toxicity in BALB/c mouse assessed as effect on grooming behavior at 20 mg/kg, ip measured administered once daily for 7 days and measured after 24 hrs by open field test; type: organism-based; conditions: in vivo, 192 h
[31] = Toxicity in BALB/c mouse assessed as effect on rubbing behavior at 20 mg/kg, ip measured administered once daily for 7 days and measured after 24 hrs by open field test; type: organism-based; conditions: in vivo, 192 h
[32] = Toxicity in BALB/c mouse assessed as assessed as effect on body weight at 20 mg/kg, ip measured administered once daily for 7 days and; type: organism-based; conditions: in vivo, 168 h, time 7 day
[33] = molecular target: Pyruvate kinase PKM (Mus musculus) (UniProt P52480); assay: Competitive inhibition of CIAC001-P1 probe binding to PKM2 in mouse BV-2 cells at 20 uM pretreated for 2 hrs followed by UV light treatment and measured after 30 mins by silver staining based Streptavidin-pull down assay; type: cell-based; conditions: time 2.5 hrs
[34] = molecular target: Pyruvate kinase PKM (Mus musculus) (UniProt P52480); assay: Competitive inhibition of CIAC001-P2 probe binding to PKM2 in mouse BV-2 cells at 20 uM pretreated for 2 hrs followed by UV light treatment and measured after 30 mins by silver staining based Streptavidin-pull down assay; type: cell-based; conditions: time 2.5 hrs
[35] = molecular target: Pyruvate kinase PKM (Mus musculus) (UniProt P52480); assay: Binding affinity to PKM2 in mouse BV-2 cells at 20 uM by Western blot analysis; type: cell-based
[36] = molecular target: Pyruvate kinase PKM (Mus musculus) (UniProt P52480); assay: Binding affinity to PKM1 in mouse BV-2 cells at 20 uM by Western blot analysis; type: cell-based
[37] = molecular target: Pyruvate kinase PKM (Mus musculus) (UniProt P52480); assay: Binding affinity to PKM2 in mouse BV-2 cells assessed as thermal stabilization by measuring change in melting temperature incubated for 2 hrs by Western blot analysis; type: cell-based
Pyruvate kinase PKM = Pyruvate kinase PKM (Mus musculus, UniProt P52480); assay: Binding affinity to PKM2 in mouse BV-2 cells by Western blot analysis; type: cell-based
[38] = molecular target: Pyruvate kinase PKM (Mus musculus) (UniProt P52480); assay: Activation of PKM2 in mouse BV-2 cells assessed as increase in ATP level at 10 uM measured for 6 hrs; type: cell-based; conditions: filed as activator
BV-2 [39] = assay: Inhibition of LPS-induced PKM2 tetramer in mouse BV-2 cells at 10 uM; type: functional, cell-based
BV-2 [40] = assay: Inhibition of LPS-induced PKM2 monomer in mouse BV-2 cells at 10 uM; type: functional, cell-based
BV-2 [41] = assay: Inhibition of LPS-induced nuclear translocation in mouse BV-2 cells incubated for 6 hrs by Western blot analysis; type: functional, cell-based
BV-2 [42] = assay: Inhibition of LPS-induced LDHA mRNA overexpression in mouse BV-2 cells at 10 uM incubated for 6 hrs; type: functional, cell-based
BV-2 [43] = assay: Inhibition of LPS-induced LDH release in mouse BV-2 cells at 10 uM incubated for 6 hrs; type: functional, cell-based
Mus musculus [44] = assay: Inhibition of morphine-induced Hif-1alpha overexpression in BALB/c mouse at 0.2 mg/kg, ip measured for 7 days; type: functional, organism-based; conditions: time 7.0 day
[45] = molecular target: Cannabinoid receptor (Homo sapiens) (UniProt P34972+P21554); assay: Agonist activity at CB1/CB2 (unknown origin) receptor expressed in HEK293 cells assessed as inhibition of forskolin-stimulated cAMP accumulation incubated for 2 hrs by microplate reader analysis; type: functional, cell-based; conditions: filed as agonist
Sequence of Cannabinoid receptor (Homo sapiens) (P21554 whole entry, looked up): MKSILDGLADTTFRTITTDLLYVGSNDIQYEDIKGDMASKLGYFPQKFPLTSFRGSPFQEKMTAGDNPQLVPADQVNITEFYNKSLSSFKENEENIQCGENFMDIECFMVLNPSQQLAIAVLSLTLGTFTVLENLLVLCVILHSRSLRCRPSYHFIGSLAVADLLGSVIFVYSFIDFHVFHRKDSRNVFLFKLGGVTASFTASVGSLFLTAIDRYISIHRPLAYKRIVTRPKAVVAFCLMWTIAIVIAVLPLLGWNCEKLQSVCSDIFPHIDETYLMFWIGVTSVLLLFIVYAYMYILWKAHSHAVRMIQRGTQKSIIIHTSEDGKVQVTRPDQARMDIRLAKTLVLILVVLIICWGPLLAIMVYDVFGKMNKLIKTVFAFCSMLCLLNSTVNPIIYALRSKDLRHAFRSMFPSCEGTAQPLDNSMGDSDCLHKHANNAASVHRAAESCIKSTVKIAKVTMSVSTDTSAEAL
Sequence of Cannabinoid receptor (Homo sapiens) (P34972 whole entry, looked up): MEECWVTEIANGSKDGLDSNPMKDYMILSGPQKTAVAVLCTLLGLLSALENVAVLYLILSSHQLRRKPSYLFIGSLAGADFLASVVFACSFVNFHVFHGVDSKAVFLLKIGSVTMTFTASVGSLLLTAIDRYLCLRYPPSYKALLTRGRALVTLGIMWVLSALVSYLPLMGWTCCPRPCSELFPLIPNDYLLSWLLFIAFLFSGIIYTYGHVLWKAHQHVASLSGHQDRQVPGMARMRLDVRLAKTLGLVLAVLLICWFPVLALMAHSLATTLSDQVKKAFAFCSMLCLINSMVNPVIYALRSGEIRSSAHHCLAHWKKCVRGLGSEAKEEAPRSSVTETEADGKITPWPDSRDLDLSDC

Sequence of Pyruvate kinase PKM (Mus musculus) (P52480 whole entry): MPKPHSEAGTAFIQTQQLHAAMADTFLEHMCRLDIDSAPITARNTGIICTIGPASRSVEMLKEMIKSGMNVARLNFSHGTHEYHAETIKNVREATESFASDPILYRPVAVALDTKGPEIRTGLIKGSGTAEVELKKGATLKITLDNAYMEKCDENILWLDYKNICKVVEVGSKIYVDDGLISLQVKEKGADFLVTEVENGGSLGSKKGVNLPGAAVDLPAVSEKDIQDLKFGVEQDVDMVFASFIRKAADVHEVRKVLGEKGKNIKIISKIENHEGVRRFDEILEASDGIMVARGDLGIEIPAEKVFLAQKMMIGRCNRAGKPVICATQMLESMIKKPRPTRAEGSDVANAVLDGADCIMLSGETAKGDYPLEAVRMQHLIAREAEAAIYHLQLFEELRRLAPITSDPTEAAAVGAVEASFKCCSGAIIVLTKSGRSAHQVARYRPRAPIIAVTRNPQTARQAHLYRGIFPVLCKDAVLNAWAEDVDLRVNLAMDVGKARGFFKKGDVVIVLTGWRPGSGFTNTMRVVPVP
Sequence of Pyruvate kinase PKM (P52480 whole entry): as above

C=C(C)[C@@H]1CCC(C)=C[C@H]1c1c(O)cc(C(C)n2nccn2)cc1O (stereo partly specified)
48 min: half-life [22]
30 min: Tmax [20]
172.8 ng·h/g: AUCt [25]
2200 nM: Kd (Pyruvate kinase PKM)
active: Activity (BV-2 [4]) Dose-Dependent Effect | Activity (BV-2 [5]) Dose-Dependent Effect | Activity (BV-2 [6]) Dose-Dependent Effect | Activity (BV-2 [7]) | Activity (BV-2 [8]) | Activity (BV-2 [9]) | Activity (BV-2 [10]) | Activity (Mus musculus [11]) Dose-Dependent Effect | Activity (Mus musculus [12]) | Activity (Mus musculus [13]) | Activity (Mus musculus [14]) | Activity (Mus musculus [15]) | Activity (Mus musculus [16]) | Activity (Mus musculus [17]) | Activity (Mus musculus [18]) | inhibition [33] | inhibition [34] | Activity [35] | Activity [36] | Activity [38] | inhibition (BV-2 [39]) | inhibition (BV-2 [40]) | inhibition (BV-2 [41]) | inhibition (BV-2 [42]) | inhibition (BV-2 [43]) | inhibition (Mus musculus [44]) | Activity [45]
57800 nM: IC50 [2]
54 min: MRT [23]
175 ng/g: Cmax [21]
18 min: Tmax [19]
Non-Toxic: Activity [26] | Activity [27] | Activity [28] | Activity [29] | Activity [30] | Activity [31] | Activity [32]
3.9 °C: ΔTm [37]
2500 nM: IC50 (BV-2 [1])
23.1: selectivity ratio [3]
< 200%: Ratio [24]
